From publication PMC10389763, “BlaPSZ-1, a novel AmpC gene identified from a Pantoea isolate” (Frontiers in Microbiology, 2023)

Biological target: T1, PSZ-1 (AmpC β-lactamase)
T1 construct: gene blaPSZ-1; recombinant PSZ-1 from pCold I in E. coli BL21, His-tag removed with thrombin
Assay: inhibition of nitrocefin hydrolysis, […] min preincubation, […]°C
Type: biochemical, Pantoea endophytica

Structure (SMILES)	IC50 [µM]
NC(=O)[C@@H]1CC[C@@H]2CN1C(=O)N2OS(=O)(=O)O [avibactam]	0.0555
C[C@]1(Cn2ccnn2)[C@H](C(=O)O)N2C(=O)C[C@H]2S1(=O)=O [tazobactam]	7.96
